{"source": "patent US6613308B2", "about": "“Pulmonary delivery in treating disorders of the central nervous system” (Advanced Inhalation Research, Inc., priority 2000, dated 2003)", "key": {"[1]": {"details": "cited from earlier work"}, "migraine": {"test_system": "migraine", "details": "cited from earlier work"}, "[2]": {"details": "cited from earlier work", "remark": "listed apart in the source"}, "in vivo [3]": {"experiment": "in vivo", "details": "Sprague Dawley, rat, 7 mg powder"}, "[4]": {"test_system": "rat model of Parkinson's disease (unilateral 6-OHDA lesion)", "experiment": "Akinesia task", "type": "in vivo"}, "in vivo [5]": {"experiment": "in vivo", "details": "rat; for bioavailability / bioavailability at 15 min / bioavailability at 60 min: 2 mg", "method": "Determinations of plasma levels of L-Dopa were made following IV injection, oral gavage, or insufflation into the lungs. Carbidopa generally is administered to ensure that peripheral decarboxylase activity is completely shut down. In this example, animals received an intraperitoneal (IP) injection of the peripheral decarboxylase inhibitor carbidopa (200 mg/kg) 1 hour prior to administration of L-Dopa. Under ketamine anesthesia, the animals were divided into 3 groups. In the first group of animals, L-Dopa (2 mg) was suspended in saline containing 1% methylcellulose and 1% ascorbic acid and given via oral gavage. In the second group, an insufflation technique was used for pulmonary administration of particles including L-Dopa (20% loading density). A laryngoscope was used to visualize the rat's epiglottis and the blunt-tip insufflation device (PennCentury Insufflation powder delivery device) was inserted into the airway. A bolus of air (3 cc), from an attached syringe, was used to delivery the pre-loaded powder from the chamber of the device into the animal's lungs. A total of 10 mg of powder (2 mg L-Dopa) was delivered. In the third group, a previously-placed femoral cannula was used to delivery a bolus (2-3 second) of L-Dopa (2 mg). Blood samples (200 μL) were withdrawn from each animal using the femoral cannula at the following timepoints: 0 (immediately prior to L-Dopa administration), 2, 5, 15, 30, 60, 120, and 240 minutes following L-Dopa administration. All samples were processed for L-Dopa determinations using HPLC.\nBioavailability was estimated by performing area under the curve (AUC) calculations."}, "[6]": {"test_system": "rat model of Parkinson's disease (unilateral 6-OHDA lesion)", "experiment": "Bracing task", "type": "in vivo"}, "[7]": {"test_system": "rat model of Parkinson's disease (unilateral 6-OHDA lesion)", "experiment": "Rotation test", "type": "in vivo", "method": "Animals also were tested on a standard pharmacodynamics rotation test known to be a sensitive and reliable measure of dopamine activity in the brain. […] These doses were chosen for this test because they represent the doses of L-Dopa shown to produce maximal efficacy in the previous functional tests. Following dosing, animals were placed into a cylindrical Plexiglas bucket. […] Animals were also tested for rotation behavior with and without pre-treatment with carbidopa. […] Because the dopamine depletions are unilateral, the uninjected side remained intact and still able respond to changes in dopamine activity. When these animals were injected with a dopamine agonist (i.e. L-Dopa) brain dopamine activity was stimulated preferentially on the intact side. […] The onset and number of rotations provided a measure of both the time course as well as the extent of increased dopamine activity."}, "[8]": {"test_system": "rat model of Parkinson's disease (unilateral 6-OHDA lesion)", "experiment": "Placing task", "type": "in vivo"}}, "data": [{"compound": "Cc1nnc2n1-c1ccc(Cl)cc1C(c1ccccc1Cl)=NC2", "note": "[triazolam]", "values": [{"measurement": "solubility in alcohol", "setting": "[1]; alcohol", "result": "soluble"}, {"measurement": "solubility in water", "setting": "[1]; water", "result": "poorly soluble"}]}, {"compound": "CNS(=O)(=O)Cc1ccc2[nH]cc(CCN(C)C)c2c1", "note": "[sumatriptan]", "values": [{"measurement": "efficacy rate", "setting": "migraine; administered intravenously (IV)", "result": 90, "unit": "%"}, {"measurement": "efficiency rate", "setting": "migraine; oral form", "result": "approximately 60%"}]}, {"compound": "Cc1ccc(-c2nc3ccc(C)cn3c2CC(=O)N(C)C)cc1", "note": "[zolpidem]", "values": [{"measurement": "Tmax", "setting": "[2]; 5 mg tablet", "result": 1.6, "unit": "h"}, {"measurement": "½ Life", "setting": "[2]; 5 mg tablet", "result": 2.6, "unit": "h"}, {"measurement": "time to peak plasma levels", "setting": "[2]; in vivo", "result": "about 2 hours"}]}, {"compound": "CC(C(=O)O)c1cccc(C(=O)c2ccccc2)c1", "note": "(centres unmarked) [Ketoprofen]", "values": [{"measurement": "concentration at 5 min", "setting": "in vivo [3]", "result": 9600, "unit": "ng/mL"}, {"measurement": "concentration at 15 min", "setting": "in vivo [3]", "result": 7600, "unit": "ng/mL"}, {"measurement": "concentration at 30 min", "setting": "in vivo [3]", "result": 5500, "unit": "ng/mL"}, {"measurement": "concentration at 60 min", "setting": "in vivo [3]", "result": 4500, "unit": "ng/mL"}, {"measurement": "concentration at 120 min", "setting": "in vivo [3]", "result": 2400, "unit": "ng/mL"}, {"measurement": "concentration at 240 min", "setting": "in vivo [3]", "result": 1800, "unit": "ng/mL"}, {"measurement": "concentration at 360 min", "setting": "in vivo [3]", "result": 1800, "unit": "ng/mL"}, {"measurement": "concentration at 480 min", "setting": "in vivo [3]", "result": 1300, "unit": "ng/mL"}, {"measurement": "concentration at 5 min", "setting": "in vivo [3]; po", "result": 1700, "unit": "ng/mL"}, {"measurement": "concentration at 15 min", "setting": "in vivo [3]; po", "result": 2100, "unit": "ng/mL"}, {"measurement": "concentration at 30 min", "setting": "in vivo [3]; po", "result": 1900, "unit": "ng/mL"}, {"measurement": "concentration at 60 min", "setting": "in vivo [3]; po", "result": 2000, "unit": "ng/mL"}, {"measurement": "concentration at 120 min", "setting": "in vivo [3]; po", "result": 1700, "unit": "ng/mL"}, {"measurement": "concentration at 240 min", "setting": "in vivo [3]; po", "result": 1400, "unit": "ng/mL"}, {"measurement": "concentration at 360 min", "setting": "in vivo [3]; po", "result": 1000, "unit": "ng/mL"}, {"measurement": "concentration at 480 min", "setting": "in vivo [3]; po", "result": 1000, "unit": "ng/mL"}, {"measurement": "Tmax via the oral route", "setting": "[2]; oral", "result": "about 90 min"}]}, {"compound": "N[C@@H](Cc1ccc(O)c(O)c1)C(=O)O", "note": "[L-Dopa, levodopa]", "values": [{"measurement": "time of maximal effects", "setting": "[4]; oral 30 mg/kg", "result": "≤ 60", "unit": "min"}, {"measurement": "time to improved performance", "setting": "[4]; oral 30 mg/kg", "result": "≤ 30", "unit": "min"}, {"measurement": "lowest dose with statistically significant (p<0.05) improvements", "setting": "[4]; pulmonary", "result": 1.0, "unit": "mg"}, {"measurement": "time of peak benefits", "setting": "[4]; pulmonary", "result": "15 to 30", "unit": "min"}, {"measurement": "time to significant improvements", "setting": "[4]; pulmonary", "result": "≤ 10", "unit": "min"}, {"measurement": "concentration at 2 min", "setting": "in vivo [5]", "result": 5000, "unit": "ng/mL"}, {"measurement": "bioavailability", "setting": "in vivo [5]", "result": "~75", "unit": "%"}, {"measurement": "bioavailability at 15 min", "setting": "in vivo [5]", "result": 38, "unit": "%"}, {"measurement": "bioavailability at 60 min", "setting": "in vivo [5]", "result": 62, "unit": "%"}, {"measurement": "concentration at 2 min", "setting": "in vivo [5]; po", "result": 1000, "unit": "ng/mL"}, {"measurement": "bioavailability", "setting": "in vivo [5]; po", "result": 33, "unit": "%"}, {"measurement": "bioavailability at 15 min", "setting": "in vivo [5]; po", "result": 9, "unit": "%"}, {"measurement": "bioavailability at 60 min", "setting": "in vivo [5]; po", "result": 24, "unit": "%"}, {"measurement": "time of maximal effects", "setting": "[6]; oral 30 mg/kg", "result": "≤ 60", "unit": "min"}, {"measurement": "time to improved performance", "setting": "[6]; oral 30 mg/kg", "result": "≤ 30", "unit": "min"}, {"measurement": "lowest dose with statistically significant improvements", "setting": "[6]; pulmonary", "result": 0.5, "unit": "mg"}, {"measurement": "time of peak benefits", "setting": "[6]; pulmonary", "result": "15 to 30", "unit": "min"}, {"measurement": "time to significant improvements", "setting": "[6]; pulmonary", "result": "≤ 10", "unit": "min"}, {"measurement": "time of peak rotations", "setting": "[7]; oral 30 mg/kg", "result": "approximately 30 minutes"}, {"measurement": "rotations during the first 10-15 minutes", "setting": "[7]; oral 30 mg/kg, carbidopa pre-treatment", "result": "< 5", "unit": "rotations/animal"}, {"measurement": "time of peak rotations", "setting": "[7]; pulmonary 2 mg total", "result": "25 to 30", "unit": "min"}, {"measurement": "rotations relative to oral delivery within the first 10-15 minutes", "setting": "[7]; pulmonary 2 mg total vs oral 30 mg/kg", "result": "greater than 3 times"}, {"measurement": "difference in drug required for equivalent efficacy, oral vs pulmonary", "setting": "[8]; 30 mg/kg oral vs 1 mg pulmonary, normalized by body weight", "result": "~10", "unit": "fold"}, {"measurement": "time of maximal effects", "setting": "[8]; oral 20 mg/kg", "result": 60, "unit": "min"}, {"measurement": "time of peak performance", "setting": "[8]; oral 30 mg/kg", "result": "1 to 2", "unit": "h"}, {"measurement": "time to improved performance with impaired limb", "setting": "[8]; oral 30 mg/kg", "result": "≤ 30", "unit": "min"}, {"measurement": "lowest dose with significant improvements", "setting": "[8]; pulmonary", "result": 0.5, "unit": "mg"}, {"measurement": "time of peak benefits", "setting": "[8]; pulmonary, highest dose tested", "result": "15 to 30", "unit": "min"}, {"measurement": "time to significant improvements", "setting": "[8]; pulmonary, highest dose tested", "result": "≤ 10", "unit": "min"}]}]}
